Activity calls are given as the source filed them.
Key:
Type in all cases: functional, organism-based
[1] = test system: Streptomyces viridochromogenes; test: Antimicrobial activity against Streptomyces viridochromogenes at 40 ug after 24 hrs by agar diffusion method
[2] = test system: Bacillus subtilis; test: Antimicrobial activity against Bacillus subtilis at 40 ug after 24 hrs by agar diffusion method
[3] = test system: Desmodesmus subspicatus; test: Antimicrobial activity against Scenedesmus subspicatus at 40 ug after 24 hrs by agar diffusion method
[4] = test system: Chlorella sorokiniana; test: Antimicrobial activity against Chlorella sorokiniana at 40 ug after 24 hrs by agar diffusion method
[5] = test system: Chlorella vulgaris; test: Antimicrobial activity against Chlorella vulgaris at 40 ug after 24 hrs by agar diffusion method
[6] = test system: Escherichia coli; test: Antimicrobial activity against Escherichia coli at 40 ug after 24 hrs by agar diffusion method
[7] = test system: Candida albicans; test: Antimicrobial activity against Candida albicans at 40 ug after 24 hrs by agar diffusion method
[8] = test system: Staphylococcus aureus; test: Antimicrobial activity against Staphylococcus aureus at 40 ug after 24 hrs by agar diffusion method

Measured: Activity

CC(=O)O[C@H](C)[C@@H]1c2cc3cccc(O[C@@H]4O[C@H](C(=O)O)[C@@H](O)[C@H](O)[C@H]4O)c3c(O)c2C(=O)C[C@]1(C)O
inactive: all assays above

Source: ChEMBL document CHEMBL1141304, “Julichrome Q6 glucuronide, a monomeric subunit of the julimycin B-I complex from a terrestrial Streptomyces sp” (J Nat Prod, 2007)
